# Results as given in US20240082296A1, “TREATMENT OF MUSCLE ATROPHY USING DEXTRAN SULFATE” (TX MEDIC AB, priority 2020, published 2024).
# Marks after values point to notes of the source that are not given here.
# Tested on: severe traumatic brain injury (sTBI) in rats
# Test: HPLC of purine-pyrimidine / energy metabolites in rat brain after sTBI (Example 4)
# Format: in vivo
# Experimental: The effects of daily sub-cutaneous injections of dextran sulfate on glutamate excitotoxicity and mitochondrial function after severe traumatic brain injury (sTBI) in rats were evaluated by high-performance liquid chromatography (HPLC) analysis of frozen brain samples.
# The experimental protocol used in this study was approved by the Ethical Committee of the Catholic University of Rome, according to international standards and guidelines for animal care. Male Wistar rats of 300-350 g body weight (b.w.) were fed with standard laboratory diet and water ad libitum in a controlled environment.
# They were divided into three groups: • 1) n=6 animals subjected to sTBI, with drug administration after 30 minutes and sacrifice at 2 days post-TBI (Acute phase 1) • 2) n=6 animals subjected to severe-TBI, with drug administration after 30 minutes and sacrifice at 7 days post-TBI (Acute phase 2). • 3) n=6 animals subjected to severe-TBI, with drug administration after 3 days and sacrifice at 7 days post-TBI (Chronic phase).
# As the anesthetic mixture, animals received 35 mg/kg b.w. ketamine and 0.25 mg/kg b.w. midazolam by i.p. injection. sTBI was induced by dropping a 450 g weight from 2 m height on to the rat head that had been protected by a metal disk previously fixed on the skull, according to the “weight drop” impact acceleration model (Marmarou et al., A new model of diffuse brain injury in rats. Part I: Pathophysiology and biomechanics. J Neurosurg. 1994; 80: 291-300). […] At the end of each period of treatment, rats were anesthetized again and then immediately sacrificed.
# The drug treatment was a subcutaneous injection of 0.5 ml of dextran sulfate (Tikomed AB, Viken, Sweden, WO 2016/076780; 15 mg/kg) and administered according to the aforementioned schematic protocol.
# An in vivo craniectomy was performed in all animals during anesthesia, after carefully removing the rat's skull, the brain was exposed and removed with a surgical spatula and quickly dropped in liquid nitrogen. After the wet weight (w.w.) determination, tissue preparation was affected as previously disclosed (Tavazzi et al., Cerebral oxidative stress and depression of energy metabolism correlate with severity of diffuse brain injury in rats. Neurosurgery. 2005; 56: 582-589; Vagnozzi et al., Temporal window of metabolic brain vulnerability to concussions: mitochondrial-related impairment-part I. Neurosurgery. 2007; 61: 379-388; Tavazzi et al., Temporal window of metabolic brain vulnerability to concussions: oxidative and nitrosative stresses-part II. Neurosurgery. 2007; 61: 390-395; Amorini et al., Severity of experimental traumatic brain injury modulates changes in concentrations of cerebral free amino acids. J Cell Mol Med. 2017; 21: 530-542.). Briefly, whole brain homogenization was performed with 7 ml of ice-cold, nitrogen-saturated, precipitating solution composed by CH3CN+10 mM KH2PO4, pH 7.40, (3:1; v:v), and using an Ultra-Turrax set at 24,000 rpm/min (Janke & Kunkel, Staufen, Germany). After centrifugation at 20,690×g, for 10 min at 4° C., the clear supernatants were saved, pellets were supplemented with 3 ml of the precipitating solution and homogenized again as described above. A second centrifugation was performed (20,690×g, for 10 min at 4° C.), pellets were saved, supernatants combined with those previously obtained, extracted by vigorous agitation with a double volume of HPLC-grade CHCl3 and centrifuged as above. The upper aqueous phases containing water-soluble low-molecular weight compounds were collected, subjected to chloroform washings for two more times (this procedure allowed the removal of all the organic solvent and of any lipid soluble compound from the buffered tissue extracts), adjusted in volumes with 10 mM KH2PO4, pH 7.40, to have ultimately aqueous 10% tissue homogenates and saved at −80° C. until assayed. […]
# [1] = Acute phase 1 (15 mg/kg s.c. 30 min after sTBI, sacrifice 2 days post-TBI)
# [2] = Acute phase 2 (15 mg/kg s.c. 30 min after sTBI, sacrifice 7 days post-TBI)
substance,measurement,setting,value
dextran sulfate,ADO concentration,[1],71.67 ± 15.87 nmol/g (w.w.)
same,ADP concentration,[1],279.34 ± 29.59^b nmol/g (w.w.)
same,ADP-ribose concentration,[1],137.87 ± 43.18^a nmol/g (w.w.)
same,AMP concentration,[1],"53.61 ± 17.91^a,c,j nmol/g (w.w.)"
same,ATP concentration,[1],"1464.25 ± 99.09^a,h nmol/g (w.w.)"
same,CDP choline concentration,[1],"10.93 ± 3.22^b,h nmol/g (w.w.)"
same,CDP concentration,[1],"25.53 ± 6.83^a,c nmol/g (w.w.)"
same,CMP concentration,[1],"30.12 ± 9.97^a,h nmol/g (w.w.)"
same,CTP concentration,[1],"18.98 ± 6.58^a,g nmol/g (w.w.)"
same,CoA-SH concentration,[1],"21.61 ± 3.42^a,h nmol/g (w.w.)"
same,GDP concentration,[1],158.72 ± 24.57^a nmol/g (w.w.)
same,GDP glucose concentration,[1],38.71 ± 6.86 nmol/g (w.w.)
same,GMP concentration,[1],"177.00 ± 32.39^a,g nmol/g (w.w.)"
same,GSH concentration,[1],"2649.50 ± 397.31^a,d nmol/g (w.w.)"
same,GSSG concentration,[1],185.21 ± 48.10 nmol/g (w.w.)
same,GTP concentration,[1],"255.29 ± 45.21^a,g nmol/g (w.w.)"
same,IMP concentration,[1],"67.71 ± 10.63^g,i nmol/g (w.w.)"
same,MDA concentration,[1],"12.47 ± 2.09^a,c,g nmol/g (w.w.)"
same,NAA concentration,[1],6147.91 ± 989.12^a nmol/g (w.w.)
same,NADH concentration,[1],"15.49 ± 2.05^c,j nmol/g (w.w.)"
same,NADPH concentration,[1],6.22 ± 1.73 nmol/g (w.w.)
same,NADP^+ concentration,[1],17.95 ± 3.28^a nmol/g (w.w.)
same,NAD^+ concentration,[1],"404.63 ± 51.10^a,c,i nmol/g (w.w.)"
same,NO2 concentration,[1],216.03 ± 41.74^a nmol/g (w.w.)
same,NO3 concentration,[1],210.64 ± 91.95^d nmol/g (w.w.)
same,UDP concentration,[1],"61.83 ± 10.23^a,g nmol/g (w.w.)"
same,UDP-Gal concentration,[1],119.45 ± 12.50 nmol/g (w.w.)
same,UDP-GalNac concentration,[1],19.17 ± 4.01^a nmol/g (w.w.)
same,UDP-Glc concentration,[1],32.14 ± 4.59^g nmol/g (w.w.)
same,UDP-GlcNac concentration,[1],"95.85 ± 19.73^h,i nmol/g (w.w.)"
same,UMP concentration,[1],107.80 ± 21.62 nmol/g (w.w.)
same,UTP concentration,[1],123.46 ± 15.42^d nmol/g (w.w.)
same,acetyl-CoA concentration,[1],"21.56 ± 6.22^a,g,i nmol/g (w.w.)"
same,adenine concentration,[1],"44.82 ± 6.31^a,d,g nmol/g (w.w.)"
same,ascorbic acid concentration,[1],"3733.10 ± 277.88^a,d nmol/g (w.w.)"
same,creatinine concentration,[1],"24.55 ± 3.20^b,g,i nmol/g (w.w.)"
same,cytidine concentration,[1],15.40 ± 3.04 nmol/g (w.w.)
same,cytosine concentration,[1],"17.69 ± 2.50^b,d nmol/g (w.w.)"
same,guanine concentration,[1],4.80 ± 1.24^b nmol/g (w.w.)
same,guanosine concentration,[1],20.71 ± 5.66 nmol/g (w.w.)
same,hypoxanthine concentration,[1],14.47 ± 2.87^a nmol/g (w.w.)
same,inosine concentration,[1],92.55 ± 31.20^c nmol/g (w.w.)
same,malonyl-CoA concentration,[1],12.33 ± 1.82^b nmol/g (w.w.)
same,orotic acid concentration,[1],"8.80 ± 2.45^b,h,j nmol/g (w.w.)"
same,thymidine concentration,[1],0.69 ± 0.11 nmol/g (w.w.)
same,uracil concentration,[1],14.56 ± 5.44 nmol/g (w.w.)
same,uric acid concentration,[1],"23.62 ± 3.77^a,d,h nmol/g (w.w.)"
same,uridine concentration,[1],"76.35 ± 12.85^a,c nmol/g (w.w.)"
same,xanthine concentration,[1],9.46 ± 2.34^d nmol/g (w.w.)
same,β-pseudouridine concentration,[1],"6.65 ± 1.30^g,i nmol/g (w.w.)"
same,ADO concentration,[2],82.11 ± 16.51^a nmol/g (w.w.)
same,ADP concentration,[2],"264.07 ± 28.29^b,e,j nmol/g (w.w.)"
same,ADP-ribose concentration,[2],"141.96 ± 23.56^a,e,j nmol/g (w.w.)"
same,AMP concentration,[2],"57.70 ± 23.01^a,e,j nmol/g (w.w.)"
same,ATP concentration,[2],"1632.23 ± 90.07^a,e,j nmol/g (w.w.)"
same,CDP choline concentration,[2],6.91 ± 1.86 nmol/g (w.w.)
same,CDP concentration,[2],24.29 ± 6.76^a nmol/g (w.w.)
same,CMP concentration,[2],"15.68 ± 2.12^f,j nmol/g (w.w.)"
same,CTP concentration,[2],"32.63 ± 3.99^e,i nmol/g (w.w.)"
same,CoA-SH concentration,[2],30.57 ± 6.02^f nmol/g (w.w.)
same,GDP concentration,[2],"126.70 ± 31.35^a,j nmol/g (w.w.)"
same,GDP glucose concentration,[2],49.25 ± 10.33^a nmol/g (w.w.)
same,GMP concentration,[2],"91.47 ± 12.35^e,i nmol/g (w.w.)"
same,GSH concentration,[2],"2821.50 ± 242.82^a,e nmol/g (w.w.)"
same,GSSG concentration,[2],219.54 ± 53.36 nmol/g (w.w.)
same,GTP concentration,[2],"336.65 ± 35.18^a,e,j nmol/g (w.w.)"
same,IMP concentration,[2],102.63 ± 22.09^a nmol/g (w.w.)
same,MDA concentration,[2],"4.82 ± 1.73^a,e,i nmol/g (w.w.)"
same,NAA concentration,[2],"7262.84 ± 749.73^a,e nmol/g (w.w.)"
same,NADH concentration,[2],13.12 ± 4.19^e nmol/g (w.w.)
same,NADPH concentration,[2],7.05 ± 2.21 nmol/g (w.w.)
same,NADP^+ concentration,[2],"21.27 ± 4.19^b,e,j nmol/g (w.w.)"
same,NAD^+ concentration,[2],"401.18 ± 34.53^a,e,i nmol/g (w.w.)"
same,NO2 concentration,[2],226.40 ± 30.95^b nmol/g (w.w.)
same,NO3 concentration,[2],"198.56 ± 25.93^e,i nmol/g (w.w.)"
same,UDP concentration,[2],"40.38 ± 8.50^a,i nmol/g (w.w.)"
same,UDP-Gal concentration,[2],145.14 ± 27.76 nmol/g (w.w.)
